According to patent EP1717249A1, “Peptides containing a cholesterol recognition sequence and their uses” (GEORGETOWN UNIVERSITY, priority 1998, dated 1999):

Columns and labels:
[1] = target: T1, recombinant mPBR (Mus musculus, UniProt P50637); experiment: 3H-PK 11195 radioligand binding to recombinant PBR (wild-type and mutated) expressed in IPTG-induced E. coli; conditions: 3H-PK 11195 binding to IPTG-induced bacteria expressing mouse PBR, Scatchard analysis
T1 construct: made in house; host or cells: Escherichia coli BL21(DE3), IPTG-induced
Excerpt: Construction of the mouse PBR expression vector (pET15bPBR) and Expression of Recombinant PBR in bacteria- The pET system (Novagen, Madison, WI) was used to express the MA-10 mouse PBR (mPBR) recombinant protein. […] This mPBR fragment was inserted into pET15b vector and linearized with NdeI and XhoI downstream of the T71ac promoter. Recombinant mPBR expression vector was used to transform the BL21(DE3) Escherichia coli strain (Novagen) where the expression of recombinant mPBR protein was induced by 1mM isopropyl-1-thiol-β-D-galactopyranoside (IPTG). PBR protein expression was monitored by SDS-PAGE followed by Coomassie Blue staining or immunoblot analysis using anti-PBR antiserum (Amri et al. 1996, supra). Binding specificity of the IPTG-induced PBR in E. coli was determined in binding studies where specific binding of ^3H-PK 11195 (1.0 nM) was measured in the presence of the indicated concentrations of the indicated ligands.
Radioligand binding assays- ^3H-1-(2-chlorophenyl)-N-methyl-N-(1-methyl-propyl)-3-isoquinolinecarboxamide (PK 11195) binding studies were performed as we previously described (Papadopoulos, V. et al. 1990, J. Biol. Chem. 265: 3772-3779; Garnier, M. et al. 1994, Mol. Pharm. 45:201-211). […]

[2] = target: T2, PBR (Mus musculus, UniProt P50637); experiment: Ligand-induced release of 3H-cholesterol from membranes of IPTG-induced transformed bacteria; assay type: biochemical; conditions: cholesterol-loaded bacterial membranes (Fig. 3F)
T2 construct: made in house; host or cells: Escherichia coli BL21(DE3), IPTG-induced
Description: ^3H-Cholesterol uptake by E. coli cells was examined using the indicated concentrations of control or IPTG-treated transformed bacteria incubated in the presence of 6.7 nM ^3H-cholesterol (50.0 Ci/mmol) for 60 min at 37°C. Specific cholesterol uptake is defined as IPTG-induced minus basal values.

[3] = tested on: isolated mitochondria; conditions: cited from earlier work

Compound | Bmax [1] | 3H-cholesterol released from cholesterol-loaded bacterial membranes [2] | intramitochondrial cholesterol transport and pregnenolone formation (mitochondrial steroidogenesis) [3]
CCC(C)N(C)C(=O)c1cc2ccccc2c(-c2ccccc2Cl)n1 (stereo not drawn) [PK 11195, 1-(2-chlorophenyl)-N-methyl-N-(1-methyl-propyl)-3-isoquinolinecarboxamide] | 0.23 pmol/mg protein | cholesterol was liberated from the membranes | –
TTN: naturally occurring processing product of DBI, the triakontatetrapeptide TTN (DBI17-50) (KTKPSDEEMLFIYGHYKQATVGDINTERPGMLDF; Triakontatetraneuropeptide; UniProt P07108 17-50, looked up, fragment) | – | – | able to mimic the effect of DBI
